Results published in patent US20140329782A1, “COMBINED THERAPEUTIC AGENT” (priority 2011, published 2014).

Columns and labels:
[1] = test system: Crohn's disease; conditions: cited from earlier work
[2] = in vivo; cited from earlier work
[3] = test system: peripheral mononuclear cells isolated from the blood of the test subjects; conditions: 100 μg/ml calcitriol, cited from earlier work
[4] = test system: patients suffering from persistent asthma (GINA II); experiment: Use and efficacy study in patients with persistent asthma (GINA II); type: in vivo, human
Procedure: • In the context of a first set of investigations, 11 patients from 32 to 65 years of age suffering from persistent asthma (GINA II) were treated with a combination therapy composed of inhaled glucocorticoid (beclomethasone, 2×200 μg/which inhalational) and inhaled long-acting beta-2 sympathomimetics (LABA, salmeterol) and also, perorally, theophylline. After one week of therapy, it was possible to achieve mild improvement of pulmonary function in 5 of the 11 test subjects. […] In two of the treated patients, it was also possible to reduce the beta-2 agonist demand by 10%. A further group based on 9 patients from 39 to 70 years of age having an identical indication, i.e., persistent asthma (GINA II), who were similarly administered with the abovementioned combination therapy composed of inhaled glucocorticoid and inhaled long-acting beta-2 sympathomimetics and also theophylline additionally received vitamin D for one week in a daily dose of 80 μg. After one week of therapy with the aforementioned dose, it was possible to achieve a mild to moderate improvement in pulmonary function in 6 of the 9 test subjects. After continued long-term therapy for 12 weeks, the persistent bronchial asthma had stabilized insofar as it was possible to reduce the inhaled glucocorticoid need by up to 60% in 7 of the 9 patients and it was possible to even completely temporarily discontinue the inhaled glucocorticoids in 1 of the 9 patients. […] In 4 of the treated patients, it was also possible to reduce the beta-2 agonist need by up to 40%.

[5] = after long-term therapy for 12 weeks

Cn1cnc([N+](=O)[O-])c1Sc1ncnc2nc[nH]c12 [azathioprine]
remission ([1]; maintaining remission): 83%

CCCC1O[C@@H]2C[C@H]3[C@@H]4CCC5=CC(=O)C=C[C@]5(C)[C@H]4[C@@H](O)C[C@]3(C)[C@]2(C(=O)CO)O1 (some centres unmarked) [budesonide]
systemic adverse effects ([1]; 6 mg of budesonide): frequent systemic adverse effects with cortisol suppression

C=C1CC[C@H](O)C/C1=C/C=C1\CCC[C@]2(C)[C@@H]([C@H](C)CCCC(C)(C)O)CC[C@@H]12 [calcifediol, 25-Hydroxyvitamin D3]
half life [2]: about 2.5 weeks

C=C1/C(=C\C=C2/CCC[C@]3(C)[C@@H]([C@H](C)CCCC(C)(C)O)CC[C@@H]23)C[C@@H](O)C[C@@H]1O [calcitriol, 1,25-dihydroxyvitamin D3]
production of interferon gamma [3]: reduces
production of interleukin 10 [3]: stimulates
inhibition of TNF-alpha production by patient group ([3]; Crohn's disease patients vs healthy): only in cells from patients suffering from Crohn's disease and not in cells from healthy patients
production of TNF-alpha in peripheral mononuclear cells ([3]; cells from patients suffering from inflammatory bowel diseases): could be lowered

vitamin D
patients in whom inhaled glucocorticoids could be completely temporarily discontinued ([4]; after 12 weeks): 1 of the 9
patients in whom the beta-2 agonist demand could be reduced ([4]; after 12 weeks): 4
patients in whom the inhaled glucocorticoid demand could be reduced ([4]; after 12 weeks): 7 of the 9
reduction of the beta-2 agonist demand [4, 5]: up to 40%
reduction of the inhaled glucocorticoid demand [4, 5]: up to 60%
test subjects with improvement of pulmonary function ([4]; after one week of therapy): 6 of the 9
tolerability ([4]; vitamin D 80 μg daily added to the combination therapy): well tolerated with no adverse effects
